# Test results taken from patent publication US20220168268A1, “SMALL-MOLECULE INHIBITOR OF PD-1/PD-L1, PHARMACEUTICAL COMPOSITION THEREOF WITH PD-L1 ANTIBODY, AND APPLICATION OF SAME” (Guangzhou Maxinovel Pharmaceuticals Co., Ltd., priority 2019, published 2022).
# Biological target: T1, PD-1/PD-L1 (Homo sapiens, UniProt Q9NZQ7)
# T1 construct: unspecified kit tag (tag1 or tag2, recognised by the detection antibodies); purchased CisBio 64CUS000C-1
# Assay: Homogeneous Time-Resolved Fluorescence (HTRF) PD-1/PD-L1 binding assay
# Conditions: CisBio kit
# Description: Homogenouse Time-Resolved Fluorescence (HTRF) binding assay was used to determine the binding activity of the compound of the present disclosure to PD-1/PD-L1.
# The purchased kit (CisBio, #64CUS000C-1) contained the reagents required for experiments such as PD-1, PD-L1, anti-tagl-Eu, Anti-tag2-XL665, Dilute Buffer and Detection Buffer.
# 1. The compound was formulated to 10 concentrations with a three-fold concentration gradient with 100% DMSO.
# 2. The solution of the compound in DMSO was added to Dilute Buffer, and mixed evenly and then transferred to a 96-well plate.
# 3. PD-L1 was diluted with Dilute Buffer and added to the 96-well plate above.
# 4. PD-1 was diluted with Dilute Buffer, then added to the 96-well plate above and incubated at room temperature for 30 minutes.
# 5. One portion of anti-tag1-Eu and one portion of anti-tag2-XL665 were added to Detection Buffer, mixed evenly and transferred to the 96-well plate above.
# 6. The mixed solution in the 96-well plate were incubated at room temperature for 1 to 24 hours.
# 7. HTRF values were read by Envision.
# T1 sequence (Q9NZQ7 19-238 limits assumed): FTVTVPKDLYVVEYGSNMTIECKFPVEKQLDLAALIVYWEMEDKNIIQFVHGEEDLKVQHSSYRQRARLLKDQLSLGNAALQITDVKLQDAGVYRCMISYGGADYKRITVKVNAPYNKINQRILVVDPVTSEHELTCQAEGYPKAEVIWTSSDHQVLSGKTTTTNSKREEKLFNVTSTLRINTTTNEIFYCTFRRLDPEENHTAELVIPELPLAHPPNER
row,Compound,IC50
1,"COc1ccc(-c2cccc(/C=C/c3cc(CNC(C)(CO)C(=O)O)ccc3C)c2C)cc1 (stereo not drawn) [Compound 2, (E)-2-((3-(2-(4′-methoxy-2-methylbiphenyl-3-yl)vinyl)-4-methylbenzyl)amino)-3-hydroxy-2-methylpropanoic Acid]",3.1 µM
2,"Cc1c(/C=C/c2cc(CNC(C)(CO)C(=O)O)ccc2C(F)(F)F)cccc1-c1cccc(F)c1 (stereo not drawn) [Compound 3, (E)-2-(3-(2-(3′-fluoro-2-methylbiphenyl-3-yl)vinyl)-4-(trifluoromethyl)benzylamino)-3-hydroxy-2-methylpropanoic Acid]",0.046 µM
3,"Cc1c(/C=C/c2cc(CNC(C)(CO)C(=O)O)ccc2C(F)(F)F)cccc1-c1ccc(F)cc1 (stereo not drawn) [Compound 6, (E)-2-(3-(2-(4′-fluoro-2-methylbiphenyl-3-yl)vinyl)-4-(trifluoromethyl)benzylamino)-3-hydroxy-2-methylpropanoic Acid]",0.32 µM
4,"Cc1ccc(CNC(C)(CO)C(=O)O)cc1/C=C/c1cccc(-c2ccc(F)cc2)c1C (stereo not drawn) [Compound 7, (E)-2-(3-(2-(4′-fluoro-2-methylbiphenyl-3-yl)vinyl)-4-methylbenzylamino)-3-hydroxy-2-methylpropanoic Acid]",1.4 µM
5,"Cc1ccc(CNC(C)(CO)C(=O)O)cc1/C=C/c1cccc(-c2ccccc2)c1C (stereo not drawn) [Compound 8, (E)-2-(3-(2-(2-methylbiphenyl-3-yl)vinyl)-4-methylbenzylamino)-3-hydroxy-2-methylpropanoic Acid]",0.042 µM
6,Cc1ccc(CNC(C)(CO)C(=O)O)cc1/C=C/c1cccc(-c2cccc(F)c2)c1C (stereo not drawn) [Compound 9],0.057 µM
7,"Cc1c(CCc2cc(CNC(CO)C(=O)O)ccc2C(F)(F)F)cccc1-c1ccccc1 (stereo not drawn) [Compound 18, 2-(3-(2-(2-Methylbiphenyl-3-yl)ethyl)-4-(trifluoromethyl)benzylamino)-3-hydroxypropanoic Acid]",0.046 µM
8,"Cc1c(/C=C/c2cc(CNC(CO)(CO)C(=O)O)ccc2C(F)(F)F)cccc1-c1ccccc1 [Compound 19, (E)-2-(3-(2-(2-methylbiphenyl-3-yl)vinyl)-4-(trifluoromethyl)benzylamino)-3-hydroxy-2-hydroxymethylpropanoic Acid]",0.061 µM
9,"Cc1c(CCc2cc(CNC(C)(CO)C(=O)O)ccc2C(F)(F)F)cccc1-c1ccccc1 (stereo not drawn) [Compound 21, 2-(3-(2-(2-Methylbiphenyl-3-yl)ethyl)-4-(trifluoromethyl)benzylamino)-3-hydroxy-2-methylpropanoic Acid]",0.085 µM
10,"Cc1c(CCc2cc(CNC(C)C(=O)O)ccc2C(F)(F)F)cccc1-c1ccccc1 (stereo not drawn) [Compound 22, 2-(3-(2-(2-Methylbiphenyl-3-yl)ethyl)-4-(trifluoromethyl)benzylamino) propanoic Acid]",0.044 µM
11,"Cc1c(/C=C/c2cc(CNC(C)(CO)C(=O)O)cc3c2OCC3)cccc1-c1ccc2c(c1)OCCO2 (stereo not drawn) [Compound 24, (E)-2-((7-(3-(2,3-dihydrobenzo[b][1,4]dioxin-6-yl)-2-methylstyryl)-2,3-dihydrobenzofuran-5-yl)methylamino)-3-hydroxy-2-methylpropanoic Acid]",0.43 µM
12,"Cc1c(/C=C/c2cc(CNC(C)(CO)C(=O)O)ccc2F)cccc1-c1ccc2c(c1)OCCO2 (stereo not drawn) [Compound 25, (E)-2-(3-(3-(2,3-dihydrobenzo[b][1,4]dioxin-6-yl)-2-methylstyryl)-4-fluorobenzylamino)-3-hydroxy-2-methylpropanoic Acid]",0.066 µM
13,"Cc1ccc(CN[C@@](C)(CO)C(=O)O)cc1/C=C/c1cccc(-c2ccccc2)c1C [Compound 31, (S,E)-2-(3-(2-(2-methylbiphenyl-3-yl)vinyl)-4-methylbenzylamino)-3-hydroxy-2-methylpropanoic Acid]",0.041 µM
14,"C[C@@](CO)(NCc1ccc(C(F)(F)F)c(/C=C/c2cccc(-c3ccccc3)c2F)c1)C(=O)O [Compound 33, (S,E)-2-(3-(2-(2-fluorobiphenyl-3-yl)vinyl)-4-(trifluoromethyl)benzylamino)-3-hydroxy-2-methylpropanoic Acid]",0.23 µM
15,"C[C@](CO)(NCc1ccc(C(F)(F)F)c(/C=C/c2cccc(-c3ccccc3)c2F)c1)C(=O)O [Compound 34, (R,E)-2-(3-(2-(2-fluorobiphenyl-3-yl)vinyl)-4-(trifluoromethyl)benzylamino)-3-hydroxy-2-methylpropanoic Acid]",0.18 µM
16,"Cc1c(/C=C/c2cc(CN[C@@](C)(CO)C(=O)O)ccc2C(F)(F)F)cccc1-c1ccc2ncoc2c1 [Compound 35, (S,E)-2-(3-(3-(benzo[d]oxazol-6-yl)-2-methylstyryl)-4-(trifluoromethyl)benzylamino)-3-hydroxy-2-methylpropanoic Acid]",1.1 µM
17,Cc1c(/C=C/c2cc(CN[C@@](C)(CO)C(=O)O)ccc2C(F)(F)F)cccc1-c1ccc2nccn2c1 [Compound 36],> 10 µM
18,Cc1c(/C=C/c2cc(CN[C@@](C)(CO)C(=O)O)ccc2C(F)(F)F)cccc1-c1cn2ccnc2cn1 [Compound 37],1.3 µM
19,"Cc1c(/C=C/c2cc(CN[C@@](C)(CO)C(=O)O)ccc2C(F)(F)F)cccc1-c1ccc2cnoc2c1 [Compound 38, (S,E)-2-(3-(3-(benzo[d]isoxazol-6-yl)-2-methylstyryl)-4-(trifluoromethyl)benzylamino)-3-hydroxy-2-methylpropanoic Acid]",> 10 µM
20,"Cc1c(/C=C/c2cc(CN[C@@](C)(CO)C(=O)O)ccc2C(F)(F)F)cccc1-c1ccccn1 [Compound 39, (S,E)-3-hydroxy-2-methyl-2-(3-(2-methyl-3-(pyridin-2-yl)styryl)-4-(trifluoromethyl)benzylamino)propanoic Acid]",2.2 µM

# Now those with a lower IC50, led by results:
row,IC50,Compound
1,0.029 µM,"Cc1ccc(CN[C@@](C)(CO)C(=O)O)cc1/C=C/c1cccc(-c2ccccc2)c1C [Compound 28, (S,E)-2-(3-(2-(2-methylbiphenyl-3-yl)vinyl)-4-methylbenzylamino)-3-hydroxy-2-methylpropanoic Acid]"
2,0.027 µM,"Cc1ccc(CN[C@@](C)(CO)C(=O)O)cc1/C=C/c1cccc(-c2ccc3c(c2F)OCCO3)c1C [Compound 30, (S,E)-2-(3-(3-(5-fluoro-2,3-dihydrobenzo[b][1,4]dioxin-6-yl)-2-methylstyryl)-4-methylbenzylamino)-3-hydroxy-2-methylpropanoic Acid]"
3,0.026 µM,"Cc1c(/C=C/c2cc(CNC(C)(CO)C(=O)O)ccc2C(F)(F)F)cccc1-c1cccc(F)c1F (stereo not drawn) [Compound 23, (E)-2-(3-(2-(2′,3′-difluoro-2-methylbiphenyl-3-yl)vinyl)-4-(trifluoromethyl)benzylamino)-3-hydroxy-2-methylpropanoic Acid]"
4,0.024 µM,"Cc1c(/C=C/c2cc(CNC(CO)C(=O)O)ccc2F)cccc1-c1ccc2c(c1)OCCO2 (stereo not drawn) [Compound 12, (E)-2-(3-(3-(2,3-dihydrobenzo[b][1,4]dioxin-6-yl)-2-methylstyryl)-4-fluorobenzylamino)-3-hydroxypropanoic Acid]"
5,0.024 µM,"Cc1c(/C=C/c2cc(C(C)NCC(=O)O)ccc2C(F)(F)F)cccc1-c1ccccc1 (stereo not drawn) [Compound 32, (E)-2-(1-(3-(2-(2-methylbiphenyl-3-yl)vinyl)-4-(trifluoromethyl)phenyl)ethylamino)acetic Acid]"
6,0.023 µM,"Cc1c(/C=C/c2cc(CNC(C)(CO)C(=O)O)ccc2C(F)(F)F)cccc1-c1ccccc1 (stereo not drawn) [Compound 5, (E)-2-(3-(2-(2-methylbiphenyl-3-yl)vinyl)-4-(trifluoromethyl)benzylamino)-3-hydroxy-2-methylpropanoic Acid]"
7,0.02 µM,"Cc1c(/C=C/c2cc(CNC(C)(CO)C(=O)O)ccc2C(F)(F)F)cccc1-c1ccccc1F (stereo not drawn) [Compound 17, (E)-2-(3-(2-(2′-fluoro-2-methylbiphenyl-3-yl)vinyl)-4-(trifluoromethyl)benzylamino)-3-hydroxy-2-methylpropanoic Acid]"
8,0.02 µM,"Cc1ccc(CN[C@@](C)(CO)C(=O)O)cc1/C=C/c1cccc(-c2ccc3c(c2F)OCCO3)c1C [Compound 26, (S,E)-2-(3-(3-(5-fluoro-2,3-dihydrobenzo[b][1,4]dioxin-6-yl)-2-methylstyryl)-4-methylbenzylamino)-3-hydroxy-2-methylpropanoic Acid]"
9,0.019 µM,"Cc1ccc(CN[C@@H](CO)C(=O)O)cc1/C=C/c1cccc(-c2ccc3c(c2F)OCCO3)c1C [Compound 14, (S,E)-2-(3-(3-(5-fluoro-2,3-dihydrobenzo[b][1,4]dioxin-6-yl)-2-methylstyryl)-4-methylbenzylamino)-3-hydroxypropanoic Acid]"
10,0.018 µM,"Cc1c(/C=C/c2cc(CNC(C)(CO)C(=O)O)ccc2C(F)(F)F)cccc1-c1ccc2c(c1F)OCCO2 (stereo not drawn) [Compound 20, (E)-2-(3-(3-(5-fluoro-2,3-dihydrobenzo[b][1,4]dioxin-6-yl)-2-methylstyryl)-4-(trifluoromethyl)benzylamino)-3-hydroxy-2-methylpropanoic Acid]"
11,0.014 µM,"Cc1c(/C=C/c2cc(CNC(CO)C(=O)O)ccc2C(F)(F)F)cccc1-c1ccc2c(c1)OCCO2 (stereo not drawn) [Compound 1, (E)-2-(3-(3-(2,3-dihydrobenzo[b][1,4]dioxin-6-yl)-2-methylstyryl)-4-(trifluoromethyl)benzylamino)-3-hydroxypropanoic Acid]"
12,0.014 µM,"Cc1c(/C=C/c2cc(CNC(CO)C(=O)O)ccc2C(F)(F)F)cccc1-c1cccc(F)c1F (stereo not drawn) [Compound 15, (E)-2-(3-(2-(2′,3′-difluoro-2-methylbiphenyl-3-yl)vinyl)-4-(trifluoromethyl)benzylamino)-3-hydroxypropanoic Acid]"
13,0.013 µM,Cc1c(/C=C/c2cc(CN[C@@H](CO)C(=O)O)ccc2C(F)(F)F)cccc1-c1ccc2c(c1F)OCCO2 [Compound 16]
